Assay type in all cases: cell-based
The test system of assay [1] is NCI-H226 cells. The experiment in a line: NCI-H226 proliferation assay (in house). The settings on record: Homo sapiens, 120 h, 5 days, Cell TiterGlo, 20-point 1:2 dilution from 20 μM. An outline of the steps: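 Viability by CellTiter-Glo luminescence after 5-day compound exposure at 37 °C, 5% CO2. Compounds added 24 h post-seeding (500 cells/well, RPMI 1640 with 10% FBS) as 20-point, 2-fold series from 20 μM final, triplicate wells.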
A general note: In ATP-based viability assays light output follows the ATP content of the culture.

For assay [2], the system named is transcriptional activity of TEADs. The experiment in a line: TEAD reporter assay (MCF7 TEAD-LUC reporter cells). The following applies: Homo sapiens, 24 hours, BrightGlo luminescence. An outline of the steps:
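Luminescence (BrightGlo) was read after 24 h of compound treatment at 37 °C, 5 % CO2. Cells had been seeded at 5,000 per well in DMEM with 10 % FBS and insulin and rested 24 h first. Dosing used 20 points, 1:2 dilution from 20 μM final, triplicates.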
Background: A reporter such as luciferase makes a cellular process visible.

For another assay, the system named is IMR32 cells. The experiment in a line: IMR32 cytotoxicity assay. The settings on record: Homo sapiens, IMR-32, 72 h, 3 days, Cell TiterGlo. The procedure: IMR32 cells were obtained from American Type Culture Collection (ATCC, CCL-127) and cultured in DMEM (Corning, 10-013-CV) supplemented with 10% fetal bovine serum (Gibco, 10438-026) and 1% penicillin-streptomycin (Gibco, 15070063). Cells were trypsinized, resuspended in growth medium, and diluted to a concentrated of 20,000 cells/mL. 1,000 cells, 50 μL of cell suspension, per well were then plated in a white 384-well plate (Corning) and incubated at 37° C., 5% CO2. After 24 hours incubation, 100 nL of test compounds in DMSO, 20-point 1:2 dilution starting from 20 μM (final concentration) in triplicate, were transferred to each well using an Agilent Bravo instrument outfitted with a pintool head. Cells were incubated at 37° C., 5% CO2 for 3 days followed by the addition of 30 μL of Cell TiterGlo (Promega; diluted 1:6 in water) to each well and luminescence values recorded using an EnVision plate reader. […]

In assay [3] the test system is NCI-H226 cells. The experiment in a line: NCI-H226 proliferation assay (Wuxi AppTec). The following applies: Homo sapiens, 168 h, 7 days, CellTiter-Glo, top dose 10, 3-fold dilution, 9 doses. The procedure:
[…] Proliferation Assay (From Wuxi AppTec CO.):
Day −1: Seeding cells • (1) Equilibrate cell culture medium to 37° C. • (2) Remove and discard the culture medium. • (3) Briefly rinse the cell layer with PBS to remove all traces of serum that contains […]. • (4) Add 2-3 mL of Trypsin-EDTA solution to flask and observe cells under an inverted microscope until cell layer is dispersed. • (5) Add 6-8 mL of growth medium to terminate the digestion of Trypsin/EDTA. • (6) Centrifuge the mixture (Trypsin EDTA and the growth medium) at 1000 rpm for 5 mins. • (7) Discard the supernatant, suspend the cell precipitation with the fresh growth medium, then take 1 mL the cell suspension to count cells with Vi-cell XR cell viability analyzer. • (8) Adjust the cell density to 500 cells/well for 384-well plates. • (9) Add 50 µL/well volume cell suspension to the assay plate. • (10) Add […] media to the control columns. • (11) Incubate the plate at 37° C., 5% CO2 for overnight. Day 0: Compounds treatment • (1) Add cpds to each well by Tecan HP D300E. The top dose is […], 3-fold dilution and 9 doses. DMSO final concentration will be normalized to 0.2%. • (2) Incubate the assay plate at 37° C., 5% CO2 for 7 days. Day 7: Plate read • (1) Equilibrate the assay plate to the room temperature for nearly 30 minutes. • (2) Add […] CellTiter-Glo reagent to each well and shake the plate for 1 min, incubate 10 min and keep them from light. • (3) Detect the plate by EnVision. Data analysis:
Max: Average of the DMSO group Min: Average of medium group.

The structures appear in SMILES notation. A value given as a limit tells only on which side of the number the result lay.

For `N#CN1CCN(c2nccnc2Nc2ccc(C(F)(F)F)cc2)CC1` [Compound 2, 4-(3-{[4-(trifluoromethyl)phenyl]amino}pyrazin-2-yl)piperazine-1-carbonitrile], the IC50 (as a rule, the point on the concentration scale where inhibition reaches its midpoint) in the assay on NCI-H226 cells [1] is 0.252 µM; in assay [2], 0.468 µM; in the assay on IMR32 cells, over 20 µM.
As for `C=CC(=O)NC1CN(c2nccnc2Nc2ccc(C(F)(F)F)cc2)C1` [Example 3, N-(1-(3-((4-(trifluoromethyl)phenyl)amino)pyrazin-2-yl)azetidin-3-yl) acrylamide], the values for the IC50 (in the assay on NCI-H226 cells [1]; in assay [2]; in the assay on IMR32 cells) were 8.24 µM, 3.76 µM and 10 µM, respectively.
For the molecule `C=CC(=O)N[C@H]1C[C@@H](Nc2nccnc2Nc2ccc(C(F)(F)F)cc2)C1` [Example 5, N-((ls,3s)-3-((3-((4-(trifluoromethyl)phenyl)amino)pyrazin-2-yl)amino)cyclobutyl) acrylamide], the results for the IC50 (in the assay with NCI-H226 cells [1]; in assay [2]; in the assay with IMR32 cells) were 13.7 µM, 0.408 µM and over 20 µM, respectively.
Regarding `C=CC(=O)NC1CC2(C1)CN(c1nccnc1Nc1ccc(C(F)(F)F)cc1)C2` [Example 6, N-(2-(3-((4-(trifluoromethyl)phenyl)amino)pyrazin-2-yl)-2-azaspiro[3.3]heptan-6-yl)acrylamide], the IC50 with NCI-H226 cells [1] is over 10 µM; in assay [2], over 20 µM; in the assay on IMR32 cells it was over 20 µM.
In the case of `C=CC(=O)NC1CCN(c2nccnc2Nc2ccc(C(F)(F)F)cc2)C1` (stereo not drawn) [Example 7, N-(1-(3-((4-(trifluoromethyl)phenyl)amino)pyrazin-2-yl)pyrrolidin-3-yl)acrylamide], the IC50 with NCI-H226 cells [1] is 0.195 µM; in assay [2], 0.0286 µM; in the assay on IMR32 cells it was over 10 µM.
As for `C=CC(=O)N1CCC(Nc2nccnc2Nc2ccc(C(F)(F)F)cc2)C1` (stereo not drawn) [Example 8, 1-(3-((3-((4-(trifluoromethyl)phenyl)amino)pyrazin-2-yl)amino)pyrrolidin-1-yl)prop-2-en-1-one], the figures for the IC50 (with NCI-H226 cells [1]; in assay [2]; with IMR32 cells) were 8.48 µM, 0.0493 µM and over 5 µM, respectively.
In the case of `C=CC(=O)NC1CCN(c2nccnc2Nc2ccc(C(F)(F)F)cc2)CC1` [Example 9, N-(1-(3-((4-(trifluoromethyl)phenyl)amino)pyrazin-2-yl)piperidin-4-yl)acrylamide], the values for the IC50 (in the assay with NCI-H226 cells [1]; in assay [2]; in the assay with IMR32 cells) were over 10 µM, 0.0296 µM and 10 µM, respectively.
For `C=CC(=O)NCC1CCCN(c2nccnc2Nc2ccc(C(F)(F)F)cc2)C1` (stereo not drawn) [Example 10, N-((1-(3-((4-(trifluoromethyl)phenyl)amino)pyrazin-2-yl)piperidin-3-yl)methyl)acrylamide] the same measures were over 14 µM, 11.3 µM and 10 µM.
Consider `C=CC(=O)N1CC2CC1CN2c1nccnc1Nc1ccc(C(F)(F)F)cc1` (stereo not drawn) [Example 11, 1-(5-(3-((4-(trifluoromethyl)phenyl)amino)pyrazin-2-yl)-2,5-diazabicyclo[2.2.1]heptan-2-yl)prop-2-en-1-one], for which the IC50 in the assay with NCI-H226 cells [1] turned out to be 0.483 µM; in assay [2], 0.0435 µM; in the assay with IMR32 cells, 1.41 µM.
Turning to `C=CC(=O)N1[C@@H]2CC[C@H]1CN(c1nccnc1Nc1ccc(C(F)(F)F)cc1)C2` [Example 12, 1-((1R,5S)-3-(3-((4-(trifluoromethyl)phenyl)amino)pyrazin-2-yl)-3,8-diazabicyclo[3.2.1]octan-8-yl)prop-2-en-1-one], the IC50 in the assay with NCI-H226 cells [1] worked out at 1.16 µM; in assay [2] it was 0.491 µM; in the assay with IMR32 cells, 10 µM.
Regarding `C=CC(=O)N1CCN(c2nccnc2Nc2ccc(C(F)(F)F)cc2)C[C@H]1C` [Example 13, (R)-1-(2-methyl-4-(3-((4-(trifluoromethyl)phenyl)amino)pyrazin-2-yl)piperazin-1-yl)prop-2-en-1-one], the results for the IC50 (with NCI-H226 cells [1]; in assay [2]; with IMR32 cells) were 0.0159 µM, 0.00348 µM and over 10 µM, respectively.
In the same order, the values of `C=CC(=O)N1CCN(c2nccnc2Nc2ccc(C(F)(F)F)cc2)C[C@@H]1C` [Example 14, (S)-1-(2-methyl-4-(3-((4-(trifluoromethyl)phenyl)amino)pyrazin-2-yl)piperazin-1-yl)prop-2-en-1-one] are 0.0246 µM, 0.00294 µM and over 10 µM.
On to `C=CC(=O)N1CC=C(c2cnc(C)nc2Oc2ccc(C(F)(F)F)nc2)CC1` [Example 129, 1-(4-(2-methyl-4-((6-(trifluoromethyl)pyridin-3-yl)oxy)pyrimidin-5-yl)-3,6-dihydropyridin-1(2H)-yl)prop-2-en-1-one], for which the half-maximal inhibitory concentration (IC50) in the assay on NCI-H226 cells [1] came to 0.104 µM; in the assay on NCI-H226 cells [3], 0.137 µM; in assay [2], 0.0012 µM.
In the case of `C=CC(=O)N1CCC(c2ncccc2Oc2ccc(C(F)(F)F)nc2)CC1` [Example 138, 1-(4-(3-((6-(trifluoromethyl)pyridin-3-yl)oxy)pyridin-2-yl)piperidin-1-yl)prop-2-en-1-one], the IC50 with NCI-H226 cells [1] worked out at 2.4 µM; in the assay on NCI-H226 cells [3], 0.134 µM; in assay [2], 0.054 µM.
Consider `C=CC(=O)N1CC=C(c2cccnc2Nc2ccc(C(F)(F)F)nc2)CC1` [Example 145, 1-(2-((6-(trifluoromethyl)pyridin-3-yl)amino)-3′,6′-dihydro-[3,4′-bipyridin]-1′(2′H)-yl)prop-2-en-1-one], for which the IC50 in the assay with NCI-H226 cells [1] was found to be 0.029 µM; in the assay with NCI-H226 cells [3], 0.017 µM; in assay [2], 0.0024 µM.
Consider `C=CC(=O)N1CC=C(c2cccnc2Oc2ccc(C(F)(F)F)nc2)CC1` [Example 153, 1-(2-((6-(trifluoromethyl)pyridin-3-yl)oxy)-3′,6′-dihydro-[3,4′-bipyridin]-1′(2′H)-yl)prop-2-en-1-one], for which the IC50 in the assay on NCI-H226 cells [1] worked out at 0.034 µM; in the assay on NCI-H226 cells [3], 0.065 µM; in assay [2], 0.0014 µM.
As for `C=C(F)C(=O)N1CC=C(c2cccnc2Oc2ccc(C(F)(F)F)nc2)CC1` [Example 154, 2-fluoro-1-(2-((6-(trifluoromethyl)pyridin-3-yl)oxy)-3′,6′-dihydro-[3,4′-bipyridin]-1′(2′H)-yl)prop-2-en-1-one], the values for the IC50 (in the assay on NCI-H226 cells [1]; with NCI-H226 cells [3]; in assay [2]) were 0.05 µM, 0.02 µM and 0.0029 µM, respectively.
For `C=CC(=O)N1CCC(c2cccnc2Oc2ccc(C(F)(F)F)nc2)CC1` [Example 155, 1-(4-(2-((6-(trifluoromethyl)pyridin-3-yl)oxy)pyridin-3-yl)piperidin-1-yl)prop-2-en-1-one] the same measures were 0.015 µM, 0.018 µM and 0.0018 µM.
On to `C=CC(=O)N1CC=C(c2cccnc2Oc2cnc(C(F)(F)F)nc2)CC1` [Example 157, 1-(2-((2-(trifluoromethyl)pyrimidin-5-yl)oxy)-3′,6′-dihydro-[3,4′-bipyridin]-1′(2′H)-yl)prop-2-en-1-one], for which the results for the IC50 (in the assay with NCI-H226 cells [1]; in the assay with NCI-H226 cells [3]; in assay [2]) were 0.132 µM, 0.013 µM and 0.0016 µM, respectively.
For `C=CC(=O)N1CCC(c2cccnc2Oc2cnc(C(F)(F)F)nc2)CC1` [Example 159, 1-(4-(2-((2-(trifluoromethyl)pyrimidin-5-yl)oxy)pyridin-3-yl)piperidin-1-yl)prop-2-en-1-one], the IC50 with NCI-H226 cells [1] was 0.022 µM; with NCI-H226 cells [3] it was 0.051 µM; in assay [2] it was 0.0018 µM.
Take `C=CC(=O)N1CCC(n2nc(C)cc2C(=O)c2ccc(C(F)(F)F)cc2)CC1` [Example 166, 1-(4-(3-methyl-5-(4-(trifluoromethyl)benzoyl)-1H-pyrazol-1-yl)piperidin-1-yl)prop-2-en-1-one]: the IC50 with NCI-H226 cells [1] is 0.02 µM; with NCI-H226 cells [3], 0.015 µM; in assay [2] it was 0.0006 µM.
`N#C/C=C/C(=O)N1CCN(c2nccnc2Nc2ccc(C(F)(F)F)cc2)CC1` [Example 181, (E)-4-oxo-4-(4-(3-((4-(trifluoromethyl)phenyl)amino)pyrazin-2-yl)piperazin-1-yl)but-2-enenitrile]: the IC50 stood at 0.034 µM with NCI-H226 cells [1], 0.026 µM in the assay with NCI-H226 cells [3] and 0.00044 µM in assay [2].

The record behind these values is patent publication US20250206722A1, “SMALL MOLECULE INHIBITORS OF TEA DOMAIN FAMILY MEMBERS” (The Scripps Research Institute, priority 2022, published 2025).
